Read-outs that look alike come from different tables or passages of the source.
Experiments:
[1] = Potentiometric (pH-metric) pKa; type: physicochemical; conditions: pH 2.0-12.0, methanol-water co-solvent, Yasuda-Shedlovsky extrapolation
Description: (§1) Crystalline forms of the compound of Formula I, including the crystalline Form I, were analyzed using pKa and LogP. An automated titrator system with an incorporated UV-Vis spectrometer (SiriusT3™, Pion Inc.) was used to acquire the spectrometric and potentiometric data. The optical system consisted of a photodiode array detector with a deuterium lamp and a fiber optic dip probe.
The titrator module consisted of a temperature controller (by Peltier device with in-situ thermocouple), pH electrode, an overhead stirrer, and motorized dispensers for the automatic delivery of assay titrants and reagents via capillaries. The instrumentation was operated using SiriusT3Control software (V2.0). Data processing and generation of the reported pKa and logP values was carried out using SiriusT3Refine software (V2.0). The titrants used were 0.5 M hydrochloric acid and 0.5 M potassium hydroxide, standardized using potassium hydrogen phthalate. ACS or HPLC grade methanol cosolvent was used for pKa determination. […]
An additional potentiometric assay was carried out to confirm the pKa. […] The aqueous pKa was extrapolated from the apparent pKa measured in the presence of co-solvents, using the Yasuda-Shedlovsky extrapolation equation. […]

[2] = Potentiometric (pH-metric) LogP and logD profile; type: physicochemical; conditions: for logP: 25.0±0.2° C.
Description: as §1
The titrator module consisted of a temperature controller (by Peltier device with in-situ thermocouple), pH electrode, an overhead stirrer, and motorized dispensers for the automatic delivery of assay titrants and reagents via capillaries. The instrumentation was operated using SiriusT3Control software (V2.0). Data processing and generation of the reported pKa and logP values was carried out using SiriusT3Refine software (V2.0). The titrants used were 0.5 M hydrochloric acid and 0.5 M potassium hydroxide, standardized using potassium hydrogen phthalate. ACS or HPLC grade methanol cosolvent was used for pKa determination. Spectrophotometric experiments were carried out in the presence of a mid-range buffer solution (15 mM di-potassium hydrogen orthophosphate) or Neutral Linear Buffer™ to prevent uncontrolled pH-drift at mid-range pH. For logP assays, ACS or HPLC grade 1-octanol was used as the partition solvent.
All experiments were carried out at a controlled temperature of 25.0±0.2° C. The pH range of titration assays is set between pH 2.0 to pH 12.0 unless otherwise stated. Prior to use, 0.5 M KOH base titrant is standardized by the titration of approximately 15 mg of potassium hydrogen phthalate, in triplicate. 0.5 M HCl titrant is subsequently standardized against the base titrant. The assay media for pKa determination is kept at a constant ionic strength of 0.15 M KCl and under argon atmosphere.
0.79 mg of sample was weighed into a 5 mL glass assay vial and titrated in a pH-metric triple titration in the presence of octanol from pH 2.0-12.0 at concentrations of 1.5-0.5 mM. The partition ratios of octanol/water were 0.012:1, 0.038:1 and 0.517:1. LogP was determined by comparing the pKa in water with the apparent pKa in the presence of octanol. The pH-metric logP experiment was conducted at 25.0±0.2° C. A lipophilicity profile (logD vs. pH) of the compound was calculated from the experimentally determined pKa and logP. The logD values are detailed in Table 12.

Potentiometric (pH-metric) pKa [1]: confirmed the spectrometric pKa
logD ([2]; 1-octanol/water, pH 5.000): 1.2
logP ([2]; octanol/water, read-out: LogP (Potentiometric), cationic species): 0.6 ± 0.03
logP ([2]; octanol/water, read-out: LogP (Potentiometric), neutral species): 3.81 ± 0.02
logD ([2]; octanol/water, pH 1.2, pH 1.200, Stomach pH): 0.6
logD ([2]; octanol/water, pH 6.5, pH 6.500): 2.55
logD ([2]; octanol/water, pH 7.4, pH 7.400, Blood pH): 3.31
logD ([2]; octanol/water, pH 1.000): 0.6
logD ([2]; octanol/water, pH 3.000): 0.61
logD ([2]; octanol/water, pH 4.000): 0.71
logD ([2]; octanol/water, pH 6.000): 2.08
logD ([2]; octanol/water, pH 7.000): 3
logD ([2]; octanol/water, pH 8.000): 3.62
logD ([2]; octanol/water, pH 9.000): 3.79
logD ([2]; octanol/water, pH 10.000): 3.81
logD ([2]; octanol/water, pH 11.000): 3.81
logD ([2]; octanol/water, pH 12.000): 3.81
SMILES: COCCOc1cccc([C@@H]2CCN(CCn3cccc3)[C@H](C)[C@H]2COc2ccc3c(c2)C(=O)NC3)c1 [crystalline Form I, (−)-6-{[(trans, trans)-4-[3-(2-methoxyethoxy)phenyl]-2-methyl-1-[2-(1H-pyrrol-1-yl)ethyl]piperidin-3-yl]methoxy}-2,3-dihydro-1H-isoindol-1-one]

From US12679825B2, “Crystalline and amorphous forms of a δ-opioid modulator” (Trevena, Inc., priority 2020, dated 2026)
